Measurements as given in PubChem BioAssay (NCI).
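Grown in 96-well plates, cells were treated for 48 hours with each compound at five concentrations. Insufficient inhibition: endpoint recorded as highest concentration tested. GI50: concentration for 50% inhibition of growth. TGI: concentration producing complete growth inhibition.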

Key:
Test in all cases: NCI anticancer screen, dose series, 48 h
BT-549 breast = test system: BT-549 breast
OVCAR-5 ovarian = test system: OVCAR-5 ovarian
HOP-92 NSCLC = test system: HOP-92 NSCLC
IGROV1 ovarian = test system: IGROV1 ovarian
SW-620 colon = test system: SW-620 colon
HT29 colon = test system: HT29 colon
SNB-19 CNS = test system: SNB-19 CNS
SK-MEL-5 melanoma = test system: SK-MEL-5 melanoma
NCI-H522 lung = test system: NCI-H522 lung
SF-539 CNS = test system: SF-539 CNS
MDA-N = test system: MDA-N
HOP-62 NSCLC = test system: HOP-62 NSCLC
HCC-2998 colon = test system: HCC-2998 colon
NCI-H23 lung = test system: NCI-H23 lung
HCT-15 colon = test system: HCT-15 colon
ACHN renal = test system: ACHN renal
NCI-H460 lung = test system: NCI-H460 lung
UACC-257 melanoma = test system: UACC-257 melanoma
MOLT-4 leukemia = test system: MOLT-4 leukemia
UO-31 renal = test system: UO-31 renal
NCI-H226 lung = test system: NCI-H226 lung
SK-MEL-28 melanoma = test system: SK-MEL-28 melanoma
HL-60(TB) leukemia = test system: HL-60(TB) leukemia
SR leukemia = test system: SR leukemia
SK-OV-3 ovarian = test system: SK-OV-3 ovarian
HS 578T breast = test system: HS 578T breast
LOX IMVI melanoma = test system: LOX IMVI melanoma
OVCAR-8 ovarian = test system: OVCAR-8 ovarian
U251 CNS = test system: U251 CNS
NCI/ADR-RES ovarian = test system: NCI/ADR-RES ovarian
MDA-MB-231 breast = test system: MDA-MB-231 breast
OVCAR-4 ovarian = test system: OVCAR-4 ovarian
COLO 205 colon = test system: COLO 205 colon
MALME-3M melanoma = test system: MALME-3M melanoma
HCT-116 colon = test system: HCT-116 colon
SF-295 CNS = test system: SF-295 CNS
MDA-MB-435 = test system: MDA-MB-435
MCF7 breast = test system: MCF7 breast
SNB-75 CNS = test system: SNB-75 CNS
A498 renal = test system: A498 renal
SK-MEL-2 melanoma = test system: SK-MEL-2 melanoma
KM12 colon = test system: KM12 colon
K-562 leukemia = test system: K-562 leukemia
UACC-62 melanoma = test system: UACC-62 melanoma
SF-268 CNS = test system: SF-268 CNS
OVCAR-3 ovarian = test system: OVCAR-3 ovarian
CCRF-CEM leukemia = test system: CCRF-CEM leukemia
CAKI-1 renal = test system: CAKI-1 renal
DU-145 prostate = test system: DU-145 prostate
786-0 renal = test system: 786-0 renal
TK-10 renal = test system: TK-10 renal
PC-3 prostate = test system: PC-3 prostate
A549 NSCLC = test system: A549 NSCLC
RPMI-8226 leukemia = test system: RPMI-8226 leukemia
EKVX NSCLC = test system: EKVX NSCLC
SN12C renal = test system: SN12C renal
T-47D breast = test system: T-47D breast
M14 melanoma = test system: M14 melanoma
RXF 393 renal = test system: RXF 393 renal
KM20L2 colon = test system: KM20L2 colon

`COc1ccc2nc3c([N+](=O)[O-])ccc4c3c(c2c1)N=CN4CCN(C)C` was tested, and the TGI (BT-549 breast) was 28.6 µM, the TGI (OVCAR-5 ovarian) was 23.3 µM and the TGI (HOP-92 NSCLC) was 26.1 µM. For the same compound, the TGI (IGROV1 ovarian) was 13.2 µM, the TGI (SW-620 colon) was greater than 42.6 µM and the TGI (HT29 colon) was 14.4 µM. The TGI (SNB-19 CNS) was 28 µM, the TGI (SK-MEL-5 melanoma) was 7.81 µM and the TGI (NCI-H522 lung) was 9.68 µM. The TGI (SF-539 CNS) was 15.8 µM, the TGI (MDA-N) was 16.9 µM and the TGI (HOP-62 NSCLC) was 15.3 µM. The TGI (HCC-2998 colon) was 20.3 µM, the TGI (NCI-H23 lung) was 21.1 µM and the TGI (HCT-15 colon) was 16.6 µM. It also gave a TGI (ACHN renal) of 16.6 µM, a TGI (NCI-H460 lung) greater than 34.1 µM and a TGI (UACC-257 melanoma) of 16.1 µM. It also gave a TGI (MOLT-4 leukemia) of 6.73 µM, a TGI (UO-31 renal) of 11.6 µM and a TGI (NCI-H226 lung) of 20.3 µM. The TGI (SK-MEL-28 melanoma) was 39.5 µM, the TGI (HL-60(TB) leukemia) was 0.616 µM and the TGI (SR leukemia) was 0.855 µM. For the same compound, the TGI (SK-OV-3 ovarian) was 28.9 µM, the TGI (HS 578T breast) was 28.1 µM and the TGI (LOX IMVI melanoma) was 14.6 µM. It also gave a TGI (OVCAR-8 ovarian) of 19.3 µM, a TGI (U251 CNS) of 24.5 µM and a TGI (NCI/ADR-RES ovarian) of 22 µM. For the same compound, the TGI (MDA-MB-231 breast) was 10.7 µM, the TGI (OVCAR-4 ovarian) was 34.9 µM and the TGI (COLO 205 colon) was 10.1 µM. It also gave a TGI (MALME-3M melanoma) of 14.5 µM, a TGI (HCT-116 colon) of 13.6 µM and a TGI (SF-295 CNS) of 21.7 µM. It also gave a TGI (MDA-MB-435) of 25.9 µM, a TGI (MCF7 breast) of 14.2 µM and a TGI (SNB-75 CNS) of 12.1 µM. The TGI (A498 renal) was 15.4 µM, the TGI (SK-MEL-2 melanoma) was 31.6 µM and the TGI (KM12 colon) was 15.6 µM. The TGI (K-562 leukemia) was 2.94 µM, the TGI (UACC-62 melanoma) was 27.4 µM and the TGI (SF-268 CNS) was 19.6 µM. It also gave a TGI (OVCAR-3 ovarian) of 17 µM, a TGI (CCRF-CEM leukemia) of 9.76 µM and a TGI (CAKI-1 renal) of 5.71 µM. It also gave a TGI (DU-145 prostate) of 15.8 µM, a TGI (786-0 renal) of 21.5 µM and a TGI (TK-10 renal) of 21.1 µM. It also gave a TGI (PC-3 prostate) of 35.4 µM, a TGI (A549 NSCLC) of 19.2 µM and a TGI (RPMI-8226 leukemia) of 8.27 µM. The TGI (EKVX NSCLC) was 18 µM, the TGI (SN12C renal) was 12.5 µM and the TGI (T-47D breast) was 22.4 µM. It also gave a TGI (M14 melanoma) of 18.7 µM.

With `CC(C)C1CCC(=O)CC1CCCCC1CC(=O)CC1O[Si](C)(C)C(C)(C)C` (centres undefined) the TGI (BT-549 breast) was 13.3 µM, the TGI (OVCAR-5 ovarian) was 26.2 µM and the TGI (HOP-92 NSCLC) was 13.1 µM. For the same compound, the TGI (IGROV1 ovarian) was 8.24 µM, the TGI (SW-620 colon) was greater than 26.5 µM and the TGI (HT29 colon) was 10.3 µM. For the same compound, the TGI (SNB-19 CNS) was 13.2 µM, the TGI (SK-MEL-5 melanoma) was 12.6 µM and the TGI (NCI-H522 lung) was 4.02 µM. The TGI (SF-539 CNS) was 24.8 µM, the TGI (MDA-N) was 21.1 µM and the TGI (HOP-62 NSCLC) was 33.7 µM. The TGI (HCC-2998 colon) was 19.3 µM, the TGI (NCI-H23 lung) was 33.7 µM and the TGI (HCT-15 colon) was 21.4 µM. The TGI (ACHN renal) was 15.2 µM, the TGI (NCI-H460 lung) was greater than 100 µM and the TGI (UACC-257 melanoma) was 21.7 µM. The TGI (MOLT-4 leukemia) was 5.5 µM, the TGI (UO-31 renal) was 20.2 µM and the TGI (NCI-H226 lung) was 15.5 µM. It also gave a TGI (SK-MEL-28 melanoma) of 19.7 µM, a TGI (SR leukemia) greater than 35.1 µM and a TGI (SK-OV-3 ovarian) of 25.7 µM. For the same compound, the TGI (HS 578T breast) was 9.89 µM, the TGI (LOX IMVI melanoma) was 9.28 µM and the TGI (OVCAR-8 ovarian) was 13 µM. The TGI (U251 CNS) was 5.84 µM, the TGI (NCI/ADR-RES ovarian) was 21.2 µM and the TGI (MDA-MB-231 breast) was 40.5 µM. It also gave a TGI (OVCAR-4 ovarian) of 29.3 µM, a TGI (COLO 205 colon) of 21.5 µM and a TGI (MALME-3M melanoma) of 19.1 µM. For the same compound, the TGI (HCT-116 colon) was 15.3 µM, the TGI (SF-295 CNS) was 25.5 µM and the TGI (RXF 393 renal) was 27.8 µM. It also gave a TGI (MDA-MB-435) of 10.9 µM, a TGI (MCF7 breast) of 27.2 µM and a TGI (SNB-75 CNS) of 26 µM. It also gave a TGI (A498 renal) of 27.1 µM, a TGI (SK-MEL-2 melanoma) of 24.5 µM and a TGI (KM12 colon) of 7.93 µM. The TGI (K-562 leukemia) was greater than 34.9 µM, the TGI (UACC-62 melanoma) was 17.1 µM and the TGI (SF-268 CNS) was 7.74 µM. For the same compound, the TGI (OVCAR-3 ovarian) was greater than 47.5 µM, the TGI (CCRF-CEM leukemia) was greater than 22.2 µM and the TGI (CAKI-1 renal) was 19.4 µM. For the same compound, the TGI (DU-145 prostate) was 39.1 µM, the TGI (786-0 renal) was 17.1 µM and the TGI (TK-10 renal) was 23.4 µM. For the same compound, the TGI (PC-3 prostate) was 43.1 µM, the TGI (A549 NSCLC) was 32.9 µM and the TGI (RPMI-8226 leukemia) was 5.6 µM. For the same compound, the TGI (EKVX NSCLC) was 36.1 µM, the TGI (SN12C renal) was 22.3 µM and the TGI (T-47D breast) was 46.9 µM. The TGI (M14 melanoma) was 43.4 µM.

`O=C(N/N=C/c1cc(Cl)cc(Cl)c1[O-])c1ccccc1O.O=C(N/N=C/c1cc(Cl)cc(Cl)c1[O-])c1ccccc1O.[Fe+2]` was tested, and the GI50 (HOP-92 NSCLC) was 3.4 µM, the TGI (HOP-92 NSCLC) was 8.33 µM and the TGI (IGROV1 ovarian) was 56.5 µM. The TGI (SW-620 colon) was 48.2 µM, the TGI (SNB-19 CNS) was 46.2 µM and the TGI (NCI-H522 lung) was 23.8 µM. The GI50 (SF-539 CNS) was 10.4 µM, the TGI (SF-539 CNS) was 28 µM and the TGI (HOP-62 NSCLC) was 44.4 µM. The TGI (HCC-2998 colon) was 26.2 µM, the GI50 (NCI-H23 lung) was 6 µM and the TGI (NCI-H23 lung) was 31.6 µM. For the same compound, the TGI (HCT-15 colon) was 19.3 µM, the TGI (ACHN renal) was 27.7 µM and the TGI (NCI-H460 lung) was 38.5 µM. The TGI (UACC-257 melanoma) was 85.8 µM, the GI50 (MOLT-4 leukemia) was 19.2 µM and the TGI (MOLT-4 leukemia) was greater than 100 µM. It also gave a TGI (UO-31 renal) of 48.7 µM, a TGI (NCI-H226 lung) of 33.5 µM and a TGI (SK-MEL-28 melanoma) of 40.6 µM. For the same compound, the TGI (HL-60(TB) leukemia) was 16.3 µM, the TGI (SR leukemia) was 35.8 µM and the TGI (SK-OV-3 ovarian) was 39.1 µM. It also gave a TGI (LOX IMVI melanoma) of 86.5 µM, a TGI (OVCAR-8 ovarian) of 34.3 µM and a TGI (U251 CNS) of 22.6 µM. It also gave a GI50 (KM20L2 colon) of 14.1 µM, a TGI (KM20L2 colon) of 27.9 µM and a TGI (OVCAR-4 ovarian) of 33.7 µM. It also gave a GI50 (MALME-3M melanoma) of 22 µM, a TGI (MALME-3M melanoma) of 61.9 µM and a GI50 (HCT-116 colon) of 11.4 µM. It also gave a TGI (HCT-116 colon) of 72.7 µM, a TGI (SF-295 CNS) of 33.9 µM and a TGI (RXF 393 renal) of 28.8 µM. The TGI (SNB-75 CNS) was 72.9 µM, the GI50 (SK-MEL-2 melanoma) was 14.9 µM and the TGI (SK-MEL-2 melanoma) was 35.5 µM. For the same compound, the GI50 (KM12 colon) was 15.5 µM, the TGI (KM12 colon) was 41.8 µM and the TGI (K-562 leukemia) was greater than 100 µM. For the same compound, the TGI (UACC-62 melanoma) was 52.4 µM, the TGI (SF-268 CNS) was 38.9 µM and the TGI (OVCAR-3 ovarian) was 38.5 µM. The TGI (CCRF-CEM leukemia) was greater than 100 µM, the TGI (CAKI-1 renal) was 69.2 µM and the TGI (TK-10 renal) was greater than 100 µM. It also gave a GI50 (A549 NSCLC) of 10.2 µM, a TGI (A549 NSCLC) of 35.2 µM and a GI50 (EKVX NSCLC) of 18.1 µM. For the same compound, the TGI (EKVX NSCLC) was 41.9 µM and the TGI (M14 melanoma) was 34.7 µM.
